According to PMC11706957 (Scientific Reports, 2025):
Several values for one entry are separate records, joined by “and”; a condition that tells them apart may be missing. Equal values may be shown once.

How the values were obtained:
DYRK2 = target: T1, DYRK2 (Homo sapiens, UniProt Q92630); assay: Kinase activity assay (33P-ATP radioactive filter binding); assay type: biochemical; conditions: duplicate 10-point concentration curve, mean ± SD
T1 sequence (Q92630 1-601): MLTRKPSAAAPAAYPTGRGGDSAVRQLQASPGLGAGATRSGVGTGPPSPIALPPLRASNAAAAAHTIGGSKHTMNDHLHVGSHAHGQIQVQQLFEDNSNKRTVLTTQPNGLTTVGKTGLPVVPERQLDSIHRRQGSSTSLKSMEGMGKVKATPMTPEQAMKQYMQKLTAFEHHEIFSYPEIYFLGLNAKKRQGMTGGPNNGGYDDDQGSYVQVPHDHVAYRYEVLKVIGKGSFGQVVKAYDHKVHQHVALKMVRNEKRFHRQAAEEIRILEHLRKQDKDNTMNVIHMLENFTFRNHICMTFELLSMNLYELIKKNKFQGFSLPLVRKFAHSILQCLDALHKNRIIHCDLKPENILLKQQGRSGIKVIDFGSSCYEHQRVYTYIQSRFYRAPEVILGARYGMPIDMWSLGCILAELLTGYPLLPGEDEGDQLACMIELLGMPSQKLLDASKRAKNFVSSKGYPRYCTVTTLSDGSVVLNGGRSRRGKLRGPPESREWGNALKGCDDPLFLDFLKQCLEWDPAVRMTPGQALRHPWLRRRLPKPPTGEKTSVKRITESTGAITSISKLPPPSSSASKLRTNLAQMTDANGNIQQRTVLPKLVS
Description: (§1) Each kinase was assayed using a duplicate 10-point concentration curve.

DYRK3 = target: T2, DYRK3 (Homo sapiens, UniProt O43781); assay: as above; assay type: biochemical; conditions: duplicate 10-point concentration curve, mean ± SD
T2 sequence (O43781 1-588): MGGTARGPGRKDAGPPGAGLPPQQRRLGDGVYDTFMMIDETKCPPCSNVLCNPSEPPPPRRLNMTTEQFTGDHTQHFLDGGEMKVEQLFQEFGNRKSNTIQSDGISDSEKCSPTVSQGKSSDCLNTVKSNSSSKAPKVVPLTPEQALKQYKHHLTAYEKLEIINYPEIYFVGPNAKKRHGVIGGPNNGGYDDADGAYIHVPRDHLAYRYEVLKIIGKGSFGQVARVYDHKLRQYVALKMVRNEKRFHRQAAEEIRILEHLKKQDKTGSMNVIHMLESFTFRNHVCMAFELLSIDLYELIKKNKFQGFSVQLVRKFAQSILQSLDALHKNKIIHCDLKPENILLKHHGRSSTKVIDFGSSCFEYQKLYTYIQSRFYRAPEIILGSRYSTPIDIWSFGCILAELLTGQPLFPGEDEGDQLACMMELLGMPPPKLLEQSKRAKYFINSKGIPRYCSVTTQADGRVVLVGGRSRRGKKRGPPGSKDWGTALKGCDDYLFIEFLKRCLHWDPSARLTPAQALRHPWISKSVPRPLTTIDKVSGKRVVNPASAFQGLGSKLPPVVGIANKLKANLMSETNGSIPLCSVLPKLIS
Description: as §1

DYRK1B [1] = target: T3, DYRK1B (Homo sapiens, UniProt Q9Y463); assay: Lantha (TR-FRET) kinase binding assay
T3 construct: purchased ThermoFisher Scientific
Description: Kinase binding activity was performed as described in[23]. Briefly, a 12-points dilution series of the compounds was prepared in DMSO and further diluted 1:33 in assay buffer A (50 mM HEPES (Sigma-Aldrich) pH 7.5, 10 mM MgCl2 (Sigma-Aldrich) 1 mM EGTA (Sigma-Aldrich) and 0.01% BRIJ-35 (ThermoFisher Scientific, Waltham, MA, USA). The GST tagged kinases, antibodies and tracer were purchased from ThermoFisher Scientific. DYRK1A and DYRK1B were each mixed with rabbit anti GST Europium tagged antibody in assay buffer A at concentrations of 15 nM kinase and 6 nM antibodies. Tracer 236 was diluted to 90 nM (DYRK1A) or 30 nM (DYRK1B) in assay buffer A. Finally, the kinase-antibody solution, compound solution and tracer solution were mixed together 1:1:1 (5µL each) in white, non-binding, round bottom 384 well microplates (Corning Inc, Kennebunk, ME, USA) mixed at 1000 rpm for 1 min and incubated in the dark at RT in humid atmosphere for 1 h. Fluorescence measurements were taken using a EnVision 2104 Multilabel reader (PerkinElmer, Shelton, CT, USA), excitation wavelength was set to 340 nm and emission was read at both 615 nm (8.5 nm bandwidth) and 665 nm (7.5 nm bandwidth) over 200ms with a 100ms delay between excitation and emission measurements. Emission ratio signals (EM) were calculated as the ratio between the 665 nm signal and the 615 nm signal. […]

RIN-M5F cells [2] = assay: Cell viability (MTS, CellTiter 96 AQueous One) in cytokine-treated cells; assay type: cell-based, rat
Description: (§2) Rat beta cells RIN-M5F (purchased from ATCC, Manassas, VA, USA, product code ATCC-CRL-11605, passage number below 40 for all experiments presented in this manuscript) were cultured in RPMI-1640 (cat# R5886, Sigma-Aldrich, Saint Louis, MO, USA) supplemented with 10% FBS (Biowest, Nauillé, France), 2 mM L-glutamine (Biowest), 1 mM sodium pyruvate (Merck, Darmstadt, Germany) and 1x Penicillin-Streptomycin (Sigma-Aldrich) according to manufacturer’s instructions. Cells were seeded 3 days before the start of each experiment to allow full attachment. In experiments analysing the effects of cytokines, cells were treated with 20 ng/ml human IL-1β and 20 ng/ml rat IFNγ (Peprotech, Rocky Hill, NJ, USA) for a given time as indicated. Mycoplasma was tested as negative using MycoAlert® Mycoplasma Kit (Lonza, Basel, Switzerland).
RIN-M5F cells were cultured in 96-well plates, 2 × 10^4 cells/well. […] Control wells with RPMI-1640 alone or supplemented with DMSO (Sigma-Aldrich, final concentration 10%) were used to estimate absorbance at 100% or 0% viability, respectively. […] The cells were thereafter incubated for an additional 72 h, and cell viability was measured by CellTiter 96®AQueous One Solution Assay (Promega, Madison, WI, USA) according to the manufacturer’s instructions. Absorbance at 490 nm was measured using a Spark® multimode microplate reader (Tecan, Männedorf, Switzerland). […]

RIN-M5F cells [3] = assay: Caspase 3/7 activity (Caspase-Glo); assay type: cell-based, rat
Description: as §2
RIN-M5F cells were cultured in 96-well plates, 2 × 10^4 cells/well. […] Caspase 3/7 activity was measured by Caspase-Glo (Promega) according to the manufacturer’s instructions. Each experiment was performed in triplicates.

RIN-M5F cells [4] = assay: EdU incorporation (flow cytometry); assay type: cell-based, rat; conditions: for Average increase of EdU + labelling: versus untreated
Description: as §2
RIN-M5F cells were seeded into 6 well plates, 6 × 10^5 cells per well. […] Subsequently, the cells were stained with 10 µM Click-iT EdU (Invitrogen, Waltham, MA, USA) for 2 h, and analysed by flow cytometry (CytoFLEX, Beckman Coulter, Brea, CA, USA) according to the manufacturer’s instructions. EdU incorporation was analysed using the CytExpert software.

RIN-M5F cells [5] = assay: Cell cycle distribution (PI staining, flow cytometry); assay type: cell-based, rat
Description: as §2
RIN-M5F cells were seeded in 6-well plates, 6 × 10^5 cells/well. […] After stimulation, the cells were washed with phosphate buffered saline (PBS) and trypsinated for 5 min at 37 °C, and fixed in ice-cold ethanol (70%) at 4 °C until analysis. The cells were stained by FxCycle™ PI/RNase Staining Solution kit (Invitrogen) according to manufacturer’s instructions and analysed by flow cytometry (CytoFLEX, Beckman Coulter). The percentages of cells in G1, S1 and G2/M was determined using the CytExpert software.

[6] = test system: phospho-dyrk1a/b (Tyr321, Tyr273); assay: Western blot of phosphorylated DYRK1A/B; assay type: cell-based, rat; conditions: 48 h, no cytokines
Description: (§3) RIN-M5F cells were seeded in 6-well plates, 6 × 10^5 cells/well. […] After centrifugation (16.9 RCF, 15 min at 4 °C) the samples were directly diluted in NuPAGE™ LDS Sample Buffer (4X, Invitrogen) supplemented with NuPAGE™ Sample Reducing Agent (10X, Invitrogen), boiled at 95 °C for 5min and loaded on gel (NuPAGE™ 4–12%, Bis-Tris, Invitrogen). Protein transfer to PVDF membrane was performed by the iBlot™ dry blotting system (Invitrogen) according to manufacturer’s instructions. The membrane was blocked using SuperBlock™ Blocking Buffer (Thermo Fisher Scientific) and subsequently cut in half around 60 kDA, the top half was incubated with primary antibodies for phospho-dyrk1a/b (Tyr321, Tyr273) (1:500, Invitrogen, ref: PA5-64574), while the bottom half was incubated with phospho-p27^kip1 (Ser10) (1:200, Invitrogen, ref:34-6300) over night at 4 °C. After washing, the membrane was incubated with Alexa488-conjugated secondary antibody (1:5000, goat anti-rabbit, Invitrogen) for 2 h and imaged with a PharoxFX imager (Bio-Rad, Hercules, CA, USA). […] Protein quantification was performed with ImageJ (National Institutes of Health, Bethesda MD, USA), using the gel analysis tool to get the integrated pixel intensity for each band.

phospho-p27^kip1 (Ser10) = assay: Western blot of phosphorylated p27KIP; assay type: cell-based, rat; conditions: 48 h, no cytokines
Description: as §3

HepG2 cells = assay: EdU incorporation in HepG2 cells; assay type: cell-based; conditions: 10 µM BfC versus untreated
Description: Supplementary Figure S2. Redocking of harmine in DYRK1A. The interactions between the compounds and the kinase hinge are identical (red circles) in both calculated and experimental model. […]
compounds are shown as cartoon, with blue for nitrogen atoms, white for hydrogen, red for oxygen, purple for iodine and either orange (experimental) or green (docked) for carbon atoms. The protein active site is shown as a grey surface and important residues are shown as wire, dashed line represent […]
µM). Open bars: EdU negative cells. Closed bars: EdU positive cells. Closed circles: Untreated cells. […]

48 cell lines = test system: 48 cell lines; design: method as in PMID 31647655; conditions: cited from earlier work
DYRK1B [7] = target: T3, DYRK1B; design: method as in Dirice et al. 2016; conditions: reference activity value, ref Dirice et al. 2016; cited from earlier work
[8] = 20 µM, cells treated with cytokines

T3 sequence (Q9Y463 whole entry): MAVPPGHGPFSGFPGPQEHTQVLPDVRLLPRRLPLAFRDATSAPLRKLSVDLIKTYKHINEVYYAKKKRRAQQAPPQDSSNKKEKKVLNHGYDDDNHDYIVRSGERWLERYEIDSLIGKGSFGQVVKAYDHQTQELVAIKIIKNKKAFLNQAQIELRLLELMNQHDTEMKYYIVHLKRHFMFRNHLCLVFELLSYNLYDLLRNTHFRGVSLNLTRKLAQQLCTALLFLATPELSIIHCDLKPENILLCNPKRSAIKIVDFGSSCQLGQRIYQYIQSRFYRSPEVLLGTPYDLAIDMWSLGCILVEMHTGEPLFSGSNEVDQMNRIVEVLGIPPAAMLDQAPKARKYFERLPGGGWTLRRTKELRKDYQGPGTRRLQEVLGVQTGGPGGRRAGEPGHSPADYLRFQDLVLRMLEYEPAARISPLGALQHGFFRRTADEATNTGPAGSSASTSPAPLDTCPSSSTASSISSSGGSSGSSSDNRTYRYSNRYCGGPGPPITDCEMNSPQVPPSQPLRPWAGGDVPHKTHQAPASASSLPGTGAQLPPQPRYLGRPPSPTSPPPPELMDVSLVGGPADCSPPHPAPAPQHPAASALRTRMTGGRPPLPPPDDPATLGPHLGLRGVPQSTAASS

COc1cc2c(-c3cnc(-c4ccc[nH]4)o3)c[nH]c2cc1Br [BfC, breitfussin C]
IC50 (DYRK2): 1400 ± 500 nM | IC50 (DYRK3): 4400 ± 800 nM | Kd (DYRK1B [1]; TR-FRET, approximate because of compound autofluorescence): ~9000 nM and 9000 nM | Protective effect against cytokine-induced cell death at higher concentrations (RIN-M5F cells [2]; concentrations above 10–20 µM (up to 40 µM), with cytokines): lost | Concentration range of effective protection against cytokine-induced cell death (RIN-M5F cells [2]; dose-response 1.25-40 µM with cytokines): 10 to 20 µM | Caspase 3/7 activity compared to control (RIN-M5F cells [3]; 10 µM pretreatment 24 h before cytokines, cytokines alone 199%): 210 ± 15% | Caspase 3/7 activity compared to control (RIN-M5F cells [3]; 10 µM, 48 h, without cytokines): 127 ± 2% | Caspase 3/7 activity compared to control (RIN-M5F cells [3]; 20 µM pretreatment 24 h before cytokines, cytokines alone 199%): 241 ± 20% | Caspase 3/7 activity compared to control (RIN-M5F cells [3]; 20 µM, 48 h, without cytokines): 186 ± 19% | EdU + labelling rate (RIN-M5F cells [4]; 10 µM pretreatment, cytokine treated cells, cytokines alone 7.7 ± 0.8%): 8.8 ± 0.8% | Average increase of EdU + labelling (RIN-M5F cells [4]; 10 µM, without cytokines): 12.5% | EdU + labelling rate (RIN-M5F cells [4]; 10 µM, without cytokines, untreated 15.2 ± […]): 17.1 ± 0.9% | EdU + labelling rate (RIN-M5F cells [4]; 20 µM pretreatment, cytokine treated cells, cytokines alone 7.7 ± 0.8%): 11.0 ± 1.1% | Average increase of EdU + labelling (RIN-M5F cells [4]; 20 µM, without cytokines): 21.1% | EdU + labelling rate (RIN-M5F cells [4]; 20 µM, without cytokines, untreated 15.2 ± […]): 18.4 ± 1.5% | Change of cells in G0/G1 phase (RIN-M5F cells [5]; 10 µM, without cytokines): significantly decreased | Change of cells in S and G2/M phase (RIN-M5F cells [5]; 10 µM, without cytokines): increased | Number of cells in G0/G1 (RIN-M5F cells [5]; 20 µM, 48 h, without cytokines, control 76.9 ± 0.6%): 66.6 ± 1.3% | Change of cells in S and G2/M phase (RIN-M5F cells [5]; [8]): increased | Change of number of cells in G0/G1 (RIN-M5F cells [5]; [8]): significantly decreased | Change of cells in S and G2/M phase (RIN-M5F cells [5]; 20 µM, without cytokines): increased | Decrease of expression of p-DYRK1A/B compared to control ([6]; 10 µM): approximately 50% | Decrease of expression of p-DYRK1A/B compared to control ([6]; 20 µM): ~62% | Decrease of expression of p-p27^KIP compared to control (phospho-p27^kip1 (Ser10); 10 µM): 23% | Decrease of expression of p-p27^KIP compared to control (phospho-p27^kip1 (Ser10); 20 µM): 42% | EdU incorporation in HepG2 cells (HepG2 cells): decreased | Concentration at which cytotoxic to 48 cell lines (48 cell lines): ≤ 10 µM

Nc1ncnc2c1c(I)cn2[C@@H]1O[C@H](CO)[C@@H](O)[C@H]1O [5IT, reference compound]
Kd (DYRK1B [1]; lanthaScreen, 95% confidence interval in bracket): 2.4 nM | IC50 (DYRK1B [7]): 10 nM
